Data reported in ChEMBL document CHEMBL5052854, “Alpha-5 beta-1 inhibitors” (2021).

System: FG2
Experiment: Inhibition of cell adhesion in human FG2 cells assessed as decrease in cell adhesion to matrix incubated for 1 hr by crystal violet staining based assay
Assay type: functional
Details: FG2, 1 h

Row | IC50 [nM] | SMILES
1 | < 100 | O=C(CNC(=O)c1cccc(NC2=NCC(F)CN2)c1)NC[C@H](NC(=O)c1c(Cl)cc(-c2ccccc2)cc1Cl)C(=O)O (stereo partly drawn)
2 | < 100 | O=C(CNC(=O)c1cccc(NC2=NCCCN2)c1)NC[C@H](NC(=O)c1c(Cl)cc(-c2ccccc2)cc1Cl)C(=O)O
3 | < 100 | O=C(CNC(=O)c1cccc(NC2=NCC(F)(F)CN2)c1)NC[C@H](NC(=O)c1c(Cl)cc(N2CCOCC2)cc1Cl)C(=O)O
4 | < 10000 | N#C/N=C(\N)Nc1cccc(C(=O)NCC(=O)NC[C@@H](NC(=O)c2c(Cl)cccc2Cl)C(=O)O)c1
5 | < 10000 | Cc1ccnc(Nc2cccc(C(=O)NCC(=O)NC[C@H](NC(=O)c3c(Cl)cccc3Cl)C(=O)O)c2)c1
6 | < 100 | O=C(CNC(=O)c1cccc(NC2=NCC(F)CN2)c1)NC[C@H](NC(=O)c1c(Cl)cc(-c2ccc3cn[nH]c3c2)cc1Cl)C(=O)O (stereo partly drawn)
7 | < 100 | N=C(N)Nc1cccc(C(=O)NCC(=O)NC[C@H](NC(=O)c2c(Cl)cc(N3CCOCC3)cc2Cl)C(=O)O)c1
8 | 101 | C[C@@H](NC(=O)c1cccc(NC2=NCC(F)CN2)c1)C(=O)NC[C@H](NC(=O)c1c(Cl)cc(-c2ccccc2)cc1Cl)C(=O)O (stereo partly drawn)
9 | 1000 | CNc1cccc(C(=O)NCC(=O)NC[C@H](NC(=O)c2c(Cl)cc(-c3ccccc3)cc2Cl)C(=O)O)n1
10 | < 100 | O=C(CNC(=O)c1cccc(NC2=NCC(O)CN2)c1)NC[C@H](NC(=O)c1c(Cl)cc(-c2ccccc2)cc1Cl)C(=O)O (stereo partly drawn)
11 | < 100 | O=C(CNC(=O)c1cccc(NC2=NCC(F)(F)CN2)c1)NC[C@H](NC(=O)c1c(Cl)cc(-c2ccccc2)cc1Cl)C(=O)O
12 | < 100 | N=C(N)Nc1cccc(C(=O)NCC(=O)NC[C@H](NC(=O)c2c(Cl)cc(-c3ccccc3)cc2Cl)C(=O)O)c1
13 | < 50000 | COc1ccc(Nc2cccc(C(=O)NCC(=O)NC[C@H](NC(=O)c3c(Cl)cccc3Cl)C(=O)O)c2)nc1
14 | < 100 | O=C(CNC(=O)c1cccc(NC2=NCCCO2)c1)NC[C@H](NC(=O)c1c(Cl)cc(-c2ccccc2)cc1Cl)C(=O)O
15 | 101 | CN(CC(=O)NC[C@H](NC(=O)c1c(Cl)cc(-c2ccccc2)cc1Cl)C(=O)O)C(=O)c1cccc(NC(=N)N)c1
16 | 101 | C/N=C(\NC)Nc1cccc(C(=O)NCC(=O)NC[C@H](NC(=O)c2c(Cl)cc(-c3ccccc3)cc2Cl)C(=O)O)c1
17 | < 10000 | N=C(N)Nc1ccc2ccn(CCC(=O)NC[C@H](NC(=O)c3c(Cl)cccc3Cl)C(=O)O)c2c1
18 | < 100 | CS(=O)(=O)c1ccc(-c2cc(Cl)c(C(=O)N[C@@H](CNC(=O)CNC(=O)c3cccc(NC(=N)N)c3)C(=O)O)c(Cl)c2)cc1
19 | < 1000 | Cc1cccc(Cl)c1C(=O)N[C@@H](CNC(=O)CNC(=O)c1cccc(NC(=N)N)c1)C(=O)O
20 | < 100 | N#Cc1cc(NC(=N)N)cc(C(=O)NCC(=O)NC[C@H](NC(=O)c2c(Cl)cc(-c3ccccc3)cc2Cl)C(=O)O)c1
21 | 100 | N#C/N=C(\N)Nc1cccc(C(=O)NCC(=O)NC[C@H](NC(=O)c2c(Cl)cccc2Cl)C(=O)O)c1
22 | < 1000 | N=C(N)Nc1ccc2c(c1)C(NCC(=O)NC[C@H](NC(=O)c1c(Cl)cccc1Cl)C(=O)O)CCO2 (stereo partly drawn)
23 | < 100 | O=C(CNC(=O)c1cccc(NC2=NCC(F)CN2)c1)NC[C@H](NC(=O)c1c(Cl)cc(N2CCS(=O)(=O)CC2)cc1Cl)C(=O)O (stereo partly drawn)
24 | < 100 | O=C(CNC(=O)c1cccc(NC2=NCCCS2)c1)NC[C@H](NC(=O)c1c(Cl)cc(-c2ccccc2)cc1Cl)C(=O)O
25 | < 100 | O=C(CNC(=O)c1cccc(NC2=NCCCN2)c1)NC[C@H](NC(=O)c1c(Cl)cccc1Cl)C(=O)O
26 | < 100 | O=C(CNC(=O)c1cccc(NC2=NCC(F)(F)CN2)c1)NC[C@H](NC(=O)c1c(Cl)cc(-c2ccc3cn[nH]c3c2)cc1Cl)C(=O)O
27 | < 100 | N=C(N)Nc1cccc(C(=O)NCC(=O)NC[C@H](NC(=O)c2c(Cl)cccc2Cl)C(=O)O)c1
28 | < 100 | O=C(CNC(=O)c1cccc(NC2=NCC(F)CN2)c1)NC[C@H](NC(=O)c1c(Cl)cc(N2CCOCC2)cc1Cl)C(=O)O (stereo partly drawn)
